Test results taken from patent US11214803B2, “Modulators of YAP1 expression” (Ionis Pharmaceuticals, Inc., priority 2019, dated 2022).
Strand notation (5' to 3'): a small letter for the sugar, then the base; units joined by * are phosphorothioate-linked, units joined directly phosphodiester-linked; [ ] holds rarer units or linkages, { } end groups; capitals alone tell only the bases. k = constrained ethyl (cEt); [5mC] = 5-methylcytosine; d = 2'-deoxy (DNA)

Test system: Yap1 mRNA
Experiment: Antisense inhibition of human Yap1 in A-431 cells by cEt gapmers, single dose (Example 2, RTS4814)
Type: cell-based
How it was run: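 A-431 cells (5,000/well) took up 2,000 nM 3-10-3 cEt gapmer by free uptake for ~48 h. Yap1 mRNA was quantified by qRT-PCR with primer probe set RTS4814, normalized to RIBOGREEN total RNA, and reported as % of untreated control.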

[1] = Table 22, Yap1 mRNA as percent of untreated control, 3-10-3 cEt gapmers, single dose
[2] = Table 33, Yap1 mRNA, percent of untreated control, 3-10-3 cEt gapmers targeting SEQ ID NO.: 1, and 2
[3] = Table 18, A-431 cells, 5,000 cells per well, free uptake, 2,000 nM modified oligonucleotide, approx. 48 hours, RTS4814, normalized to RIBOGREEN, Yap1 mRNA as percent of untreated control
[4] = A-431 cells, 5,000 cells per well, free uptake, 2,000 nM modified oligonucleotide, approx. 48 hours, RTS4814, normalized to RIBOGREEN, Table 4, asterisk (*) = targets amplicon region of primer probe set
[5] = Table 23, Yap1 mRNA as percent of untreated control, 3-10-3 cEt gapmers, single dose
[6] = Table 24, Yap1 mRNA as percent of untreated control, 3-10-3 cEt gapmers targeting SEQ ID NO.: 1, and 2
[7] = Table 20, Yap1 mRNA, percent of untreated control, 3-10-3 cEt gapmers targeting SEQ ID NO.: 1 and 2
[8] = Table 19, A-431 cells, 5,000 cells per well, free uptake, 2,000 nM modified oligonucleotide, approx. 48 hours, RTS4814, normalized to RIBOGREEN, Yap1 mRNA as percent of untreated control
[9] = Yap1 mRNA as percent of untreated control, A-431 cells, 3-10-3 cEt gapmers targeting SEQ ID NO.: 1, and 2, Table 30
[10] = Table 6, A-431 cells, 5,000 cells per well, free uptake, 2,000 nM modified oligonucleotide, approx. 48 hours, RTS4814, normalized to RIBOGREEN, Yap1 mRNA relative to untreated control cells
[11] = Yap1 mRNA as percent of untreated control, A-431 cells, 3-10-3 cEt gapmers targeting SEQ ID NO.: 1, and 2, Table 31

In the case of “1076008 (kA*kG*k[5mC]*dG*dA*dA*dA*dA*dT*dA*dA*d[5mC]*dA*kT*kT*kA; antisense) [Compound 1076008]”, the “YAP1 (% UTC)” value [1] was 33 % UTC.
For “1075315 (antisense k[5mC]*kA*kT*dA*dA*d[5mC]*dT*dT*dG*dA*dT*dG*dA*k[5mC]*kT*k[5mC]) [compound 1075315]”, the “YAP1 (% UTC)” value [2] was 27 % UTC.
“1074835 (k[5mC]*kT*kT*dG*d[5mC]*dG*dA*dG*dG*dA*dT*dA*dA*kA*kA*kT; antisense) [compound 1074835]” was tested, and the “YAP1 (% UTC)” value [2] was 30 % UTC.
With “1076484 (antisense kG*kA*kA*dA*d[5mC]*dG*dG*dG*dA*dA*dA*dT*d[5mC]*kA*kT*kA) [Compound 1076484]” the “YAP1 (% UTC)” value [3] was 10 % UTC.
“716367 (k[5mC]*kA*kT*dG*dG*dG*d[5mC]*dA*d[5mC]*dG*dG*dT*d[5mC]*kT*kG*kG; antisense) [Compound 716367]” was tested, and the “YAP1 (% UTC)” value [4] was 70 % UTC.
With “1075913 (k[5mC]*k[5mC]*k[5mC]*d[5mC]*dT*dA*dT*dA*d[5mC]*dT*dT*dT*dT*kT*kG*kA; antisense) [Compound 1075913]” the “YAP1 (% UTC)” value [5] was 46 % UTC.
“1075464 (antisense k[5mC]*k[5mC]*kA*d[5mC]*dT*dA*dA*dA*d[5mC]*d[5mC]*dA*d[5mC]*d[5mC]*kT*kA*kA) [Compound 1075464]” was tested, and the “YAP1 (% UTC)” value [1] was 77 % UTC.
With “1075178 (antisense k[5mC]*kT*kG*dG*dA*dA*dG*dA*dA*dA*dT*dT*dA*k[5mC]*k[5mC]*k[5mC]) [Compound 1075178]” the “YAP1 (% UTC)” value [6] was 47 % UTC.
“716382 (kA*kG*k[5mC]*dA*dT*dG*dG*d[5mC]*d[5mC]*dT*dT*d[5mC]*d[5mC]*kT*kG*kG; antisense) [Compound 716382]” was tested, and the “YAP1 (% UTC)” value [4] was 73 % UTC.
In the case of “1074566 (antisense k[5mC]*kA*k[5mC]*dT*dG*dA*dA*dT*dT*d[5mC]*d[5mC]*dA*dA*kT*k[5mC]*kG) [Compound 1074566]”, the “YAP1 (% UTC)” value [7] was 3 % UTC.
With “1076358 (kG*kT*kT*dT*dA*dA*d[5mC]*dA*dA*dA*d[5mC]*dT*dT*kG*kT*kA; antisense) [Compound 1076358]” the “YAP1 (% UTC)” value [7] was 43 % UTC.
“1075077 (antisense kT*kA*kT*dA*d[5mC]*dG*dG*dT*d[5mC]*d[5mC]*dA*dT*dA*kA*k[5mC]*kA) [Compound 1075077]” was tested, and the “YAP1 (% UTC)” value [8] was 35 % UTC.
In the case of “716442 (kG*k[5mC]*kA*d[5mC]*dT*dA*dG*dG*dA*dG*dG*dA*dA*kA*kA*kG; antisense) [Compound 716442]”, the “YAP1 (% UTC)” value [4] was 63 % UTC.
In the case of “1074214 (antisense kT*k[5mC]*k[5mC]*dG*dG*d[5mC]*dG*dG*d[5mC]*dT*dT*dG*dA*kA*kG*kA) [Compound 1074214]”, the “YAP1 (% UTC)” value [7] was 89 % UTC.
With “1074248 (antisense kG*kA*kT*d[5mC]*dG*dA*dT*dG*dT*dG*dA*dT*dT*kT*kA*kA) [Compound 1074248]” the “YAP1 (% UTC)” value [1] was 29 % UTC.
With “1075141 (antisense kT*kA*kT*dA*d[5mC]*dG*dA*dG*dA*dA*dG*dT*dT*kG*kA*kA) [Compound 1075141]” the “YAP1 (% UTC)” value [8] was 54 % UTC.
With “1076112 (kA*kT*kT*d[5mC]*dA*dA*dA*dA*d[5mC]*d[5mC]*dA*d[5mC]*dG*kG*kA*kA; antisense) [compound 1076112]” the “YAP1 (% UTC)” value [9] was 98 % UTC.
With “716443 (kT*kT*kA*dT*dG*dT*dG*dA*d[5mC]*dT*dA*dA*dT*kG*kA*kT; antisense) [Compound 716443]” the “YAP1 (% UTC)” value (Table 5, A-431 cells, 5,000 cells per well, free uptake, 2,000 nM modified oligonucleotide, approx. 48 hours, RTS4814, normalized to RIBOGREEN, Yap1 mRNA relative to untreated control cells) was 73 % UTC.
For “716378 (kG*k[5mC]*kA*dG*dA*dG*dG*dT*dA*d[5mC]*dA*dT*d[5mC]*kA*kT*k[5mC]; antisense) [Compound 716378]”, the “YAP1 (% UTC)” value [10] was 44 % UTC.
For “1075465 (antisense kG*kA*kT*dT*dT*dA*dT*dT*dG*dA*dA*d[5mC]*dT*kG*kA*kG) [Compound 1075465]”, the “YAP1 (% UTC)” value [5] was 7 % UTC.
In the case of “1074704 (antisense k[5mC]*kA*k[5mC]*dG*dG*dT*dG*dT*dA*dA*dG*dA*d[5mC]*kA*kA*kG) [compound 1074704]”, the “YAP1 (% UTC)” value [9] was 16 % UTC.
For “1075972 (kT*k[5mC]*kA*d[5mC]*dA*dA*dG*dG*dG*d[5mC]*dT*dA*dA*kT*kT*k[5mC]; antisense) [Compound 1075972]”, the “YAP1 (% UTC)” value [3] was 22 % UTC.
For “1075146 (antisense kG*kT*kA*dT*dT*dA*dA*dG*dG*dG*dA*dT*dT*kT*kT*k[5mC]) [Compound 1075146]”, the “YAP1 (% UTC)” value [6] was 8 % UTC.
For “1075536 (kT*kT*kA*dA*dT*dT*dA*d[5mC]*d[5mC]*d[5mC]*dA*dA*dG*kG*kA*k[5mC]; antisense) [compound 1075536]”, the “YAP1 (% UTC)” value [9] was 55 % UTC.
For “1075024 (antisense kA*k[5mC]*kT*dG*dA*dA*d[5mC]*dA*dA*dG*dT*dA*dT*k[5mC]*kT*kT) [compound 1075024]”, the “YAP1 (% UTC)” value [9] was 32 % UTC.
With “1076362 (k[5mC]*k[5mC]*kA*d[5mC]*dT*dA*dA*dA*dT*dA*dA*dA*dG*k[5mC]*kA*kG; antisense) [Compound 1076362]” the “YAP1 (% UTC)” value [6] was 16 % UTC.
In the case of “716540 (antisense kG*kA*kA*dA*dA*dG*dT*dT*dA*dT*dT*dA*d[5mC]*kA*kA*k[5mC]) [Compound 716540]”, the “YAP1 (% UTC)” value [10] was 120 % UTC.
For “1076040 (k[5mC]*kT*kT*dA*dA*dA*dG*dA*dA*dG*d[5mC]*dA*d[5mC]*kT*kA*kG; antisense) [Compound 1076040]”, the “YAP1 (% UTC)” value [1] was 105 % UTC.
With “1076011 (kA*kT*kA*dT*dA*dA*dA*d[5mC]*dA*dA*dT*dA*dG*k[5mC]*kG*kA; antisense) [Compound 1076011]” the “YAP1 (% UTC)” value (Table 25, Yap1 mRNA as percent of untreated control, 3-10-3 cEt gapmers targeting SEQ ID NO.: 1, and 2) was 61 % UTC.
For “716445 (kG*kT*kA*dT*dG*dT*dG*dG*d[5mC]*dA*dA*dT*dA*kA*kT*kT; antisense) [Compound 716445]”, the “YAP1 (% UTC)” value [4] was 28 % UTC.
In the case of “716348 (kA*k[5mC]*kG*dG*dA*dG*dG*d[5mC]*d[5mC]*dG*dG*dA*d[5mC]*kA*kG*k[5mC]; antisense) [Compound 716348]”, the “YAP1 (% UTC)” value [10] was 107 % UTC.
“716349 (kA*k[5mC]*kT*dT*dT*dT*dT*d[5mC]*d[5mC]*d[5mC]*dT*d[5mC]*d[5mC]*kA*kA*k[5mC]; antisense) [Compound 716349]” was tested, and the “YAP1 (% UTC)” value [4] was 78 % UTC.
With “1074536 (antisense kA*kG*kT*dA*dA*dT*dA*dG*d[5mC]*dT*d[5mC]*dT*dT*kT*k[5mC]*kT) [Compound 1074536]” the “YAP1 (% UTC)” value [1] was 6 % UTC.
With “716432 (kT*k[5mC]*kT*dG*dA*dG*dT*dA*dT*dT*dT*dA*dG*kT*kT*kA; antisense) [Compound 716432]” the “YAP1 (% UTC)” value [10] was 30 % UTC.
With “1074472 (kA*kA*k[5mC]*d[5mC]*d[5mC]*d[5mC]*d[5mC]*d[5mC]*d[5mC]*dA*d[5mC]*d[5mC]*dG*kA*k[5mC]*k[5mC]; antisense) [Compound 1074472]” the “YAP1 (% UTC)” value [1] was 107 % UTC.
With “1075528 (kA*kT*k[5mC]*dG*dA*dA*dG*dG*dG*d[5mC]*dA*dA*dA*k[5mC]*kT*k[5mC]; antisense) [Compound 1075528]” the “YAP1 (% UTC)” value [1] was 42 % UTC.
For “1074822 (kT*kA*kG*dA*dA*dA*dA*dG*dT*dG*dT*dT*dA*kA*kG*k[5mC]; antisense) [Compound 1074822]”, the “YAP1 (% UTC)” value [7] was 25 % UTC.
For “1076145 (k[5mC]*k[5mC]*kT*dT*dA*dT*dA*dG*dG*dT*dT*dA*dT*kA*kG*kT; antisense) [compound 1076145]”, the “YAP1 (% UTC)” value [11] was 41 % UTC.
With “1075204 (antisense kG*kT*kT*dA*dA*dA*d[5mC]*dA*d[5mC]*dA*dT*d[5mC]*dT*k[5mC]*kA*kG) [Compound 1075204]” the “YAP1 (% UTC)” value [3] was 43 % UTC.
For “1076051 (k[5mC]*kT*kT*dA*dA*d[5mC]*dT*dA*dT*dT*d[5mC]*dA*dG*k[5mC]*k[5mC]*k[5mC]; antisense) [compound 1076051]”, the “YAP1 (% UTC)” value [2] was 21 % UTC.
With “716552 (kT*kT*kT*d[5mC]*dT*d[5mC]*dA*dG*dA*dT*dG*dT*dA*k[5mC]*k[5mC]*kA; antisense) [Compound 716552]” the “YAP1 (% UTC)” value [10] was 53 % UTC.
“1075345 (antisense kG*kT*kA*dA*d[5mC]*dT*dA*dA*dA*dA*dG*dG*dG*kA*kG*kT) [compound 1075345]” was tested, and the “YAP1 (% UTC)” value [11] was 29 % UTC.
“1074666 (antisense k[5mC]*kA*kT*dA*dT*dA*d[5mC]*d[5mC]*d[5mC]*dA*dA*dT*dT*kT*kT*kG) [Compound 1074666]” was tested, and the “YAP1 (% UTC)” value [6] was 16 % UTC.
With “1075946 (kG*k[5mC]*kT*dG*dA*dA*dT*dA*dA*dG*dT*dA*dA*k[5mC]*kT*kT; antisense) [Compound 1075946]” the “YAP1 (% UTC)” value [6] was 20 % UTC.
For “1076100 (kA*kA*kT*dA*dA*dG*dG*dG*dA*d[5mC]*dT*dA*d[5mC]*kT*kT*kT; antisense) [Compound 1076100]”, the “YAP1 (% UTC)” value [3] was 65 % UTC.
In the case of “1074928 (antisense kA*kT*kA*d[5mC]*dA*dA*d[5mC]*dA*dG*dG*d[5mC]*d[5mC]*dT*kG*k[5mC]*kA) [compound 1074928]”, the “YAP1 (% UTC)” value [9] was 83 % UTC.
